# Test results as given in patent US10494332B2, “Protein tyrosine phosphatases or SHP2 inhibitors and uses thereof” (Indiana University Research and Technology Corporation, priority 2015, dated 2019).
# Entries after “also recorded” stand apart in the source; their conditions may differ.
# Tests used:
# mPTPA = mPTPA (Mycobacterium tuberculosis, UniProt P9WIA1); experiment: biochemical; conditions: IC50 mPTPA
# LMWPTP = molecular target: T1, LMWPTP (Homo sapiens, UniProt P24666); experiment: PTP inhibition assay (pNPP); format: biochemical; conditions: pNPP at Km, pH 7.0, 25° C.
# T1 sequence (P24666 1-158): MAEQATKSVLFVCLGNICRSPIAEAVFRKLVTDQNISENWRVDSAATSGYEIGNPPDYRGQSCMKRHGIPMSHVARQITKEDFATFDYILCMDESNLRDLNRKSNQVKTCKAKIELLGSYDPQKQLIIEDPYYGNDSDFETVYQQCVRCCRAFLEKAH
# PTPμ = PTPμ (Homo sapiens, UniProt P28827); experiment: biochemical
# PTPμ, sequence (P28827 21-1452): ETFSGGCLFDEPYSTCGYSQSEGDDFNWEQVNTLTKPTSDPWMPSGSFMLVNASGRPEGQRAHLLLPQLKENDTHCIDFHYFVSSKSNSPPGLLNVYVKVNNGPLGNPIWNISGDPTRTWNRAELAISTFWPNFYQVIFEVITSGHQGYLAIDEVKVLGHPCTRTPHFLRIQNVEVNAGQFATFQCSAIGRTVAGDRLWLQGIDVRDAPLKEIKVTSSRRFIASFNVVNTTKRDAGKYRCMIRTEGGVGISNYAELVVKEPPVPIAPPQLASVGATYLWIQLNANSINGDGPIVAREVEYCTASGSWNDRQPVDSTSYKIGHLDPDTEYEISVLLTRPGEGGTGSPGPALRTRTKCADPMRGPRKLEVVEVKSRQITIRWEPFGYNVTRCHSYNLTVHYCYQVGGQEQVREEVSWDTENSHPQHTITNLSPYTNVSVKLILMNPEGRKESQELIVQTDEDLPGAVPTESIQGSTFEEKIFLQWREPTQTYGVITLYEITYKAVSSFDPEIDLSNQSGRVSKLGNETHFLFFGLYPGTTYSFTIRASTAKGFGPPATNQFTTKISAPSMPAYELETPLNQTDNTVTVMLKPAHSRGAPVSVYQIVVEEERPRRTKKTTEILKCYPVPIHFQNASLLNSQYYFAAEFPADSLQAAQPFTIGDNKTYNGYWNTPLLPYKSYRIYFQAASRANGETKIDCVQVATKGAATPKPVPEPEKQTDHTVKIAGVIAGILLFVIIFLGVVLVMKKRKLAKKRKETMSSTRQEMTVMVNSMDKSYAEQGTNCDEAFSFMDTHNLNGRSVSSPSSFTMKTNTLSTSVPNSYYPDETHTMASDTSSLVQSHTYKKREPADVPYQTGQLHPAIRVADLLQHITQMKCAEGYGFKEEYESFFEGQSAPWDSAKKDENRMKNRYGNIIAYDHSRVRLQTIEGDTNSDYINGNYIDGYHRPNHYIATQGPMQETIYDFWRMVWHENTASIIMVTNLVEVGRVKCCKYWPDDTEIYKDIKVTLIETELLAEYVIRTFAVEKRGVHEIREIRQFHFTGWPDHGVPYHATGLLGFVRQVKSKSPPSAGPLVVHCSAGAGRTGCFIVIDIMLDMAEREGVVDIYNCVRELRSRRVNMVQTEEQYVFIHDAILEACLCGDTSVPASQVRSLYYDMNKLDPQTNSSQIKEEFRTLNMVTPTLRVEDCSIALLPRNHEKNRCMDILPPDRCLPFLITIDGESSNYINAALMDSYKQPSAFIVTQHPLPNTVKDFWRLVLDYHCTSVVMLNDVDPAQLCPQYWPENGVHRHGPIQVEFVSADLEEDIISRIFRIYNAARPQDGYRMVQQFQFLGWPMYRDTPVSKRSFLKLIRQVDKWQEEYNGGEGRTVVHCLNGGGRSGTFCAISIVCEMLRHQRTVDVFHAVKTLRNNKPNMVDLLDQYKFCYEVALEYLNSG
# [1] = tested on: H1975 non-small cell lung cancer (NSCLC) cell line; experiment: MTT cell proliferation assay; format: cell-based, human; conditions: 20 μM and 40 μM, 2 days
# Experimental: (§1) Human non-small cell lung carcinoma cell line H1975 was cultured at 37° C. and 5% CO2 in RPMI-1640 (Corning) supplemented with 10% fetal bovine serum (HyClone). Human breast cancer cell line MDA-MB-231 was cultured in DMEM supplemented with 10% fetal bovine serum. For cell proliferation assay, 2˜3×10^3 cells were seeded in each well of 96-well plates. After treating cells with compounds for 2 days, cells were incubated with 50 μg/ml MTT (3-(4,5-Dimethylthiazol-2-yl)-2,5-diphenyltetrazolium bromide) for ˜3-4 hours. Then, the culture medium was removed, DMSO was added to dissolve the formazan crystals. Wells containing only media were used for background correction. The optical density was measured spectrophotometrically at 540 nm. For signaling analysis, cells were serum-starved overnight followed by treatment with vehicle or compounds for 3 hours, and then either left un-stimulated or stimulated with 5 μg/ml EGF or 10 nM PMA (Sigma) for indicated time. Cells were lysed and the lysates were electrophoresed on a 10% polyacrylamide gel, and then transferred to a nitrocellulose membrane, and probed with anti-phospho-ERK1/2 and anti-ERK1/2 (Cell Signaling) antibodies followed by incubation with horseradish peroxidase-conjugated secondary antibodies. The blots were developed by the enhanced chemiluminescence technique using the SuperSignal West Pico Chemiluminescent substrate (Pierce).
# PP5 = molecular target: T2, PP5 (Homo sapiens, UniProt P53041); experiment: biochemical
# T2 sequence (P53041 1-499): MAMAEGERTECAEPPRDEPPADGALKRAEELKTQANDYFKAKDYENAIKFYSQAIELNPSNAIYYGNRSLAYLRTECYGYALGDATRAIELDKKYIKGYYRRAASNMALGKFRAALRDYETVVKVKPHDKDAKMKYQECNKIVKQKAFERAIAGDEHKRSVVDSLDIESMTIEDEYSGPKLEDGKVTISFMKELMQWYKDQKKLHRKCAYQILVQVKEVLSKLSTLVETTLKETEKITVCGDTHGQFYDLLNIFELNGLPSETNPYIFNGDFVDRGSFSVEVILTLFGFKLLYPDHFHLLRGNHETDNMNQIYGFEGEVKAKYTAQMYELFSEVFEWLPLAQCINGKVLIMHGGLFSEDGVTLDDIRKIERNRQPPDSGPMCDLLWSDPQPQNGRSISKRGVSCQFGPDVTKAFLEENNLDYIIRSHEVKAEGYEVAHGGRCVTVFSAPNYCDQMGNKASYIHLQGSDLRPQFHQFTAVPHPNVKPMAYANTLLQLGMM
# SHP2 [2] = molecular target: T3, SHP2 (Homo sapiens, UniProt Q06124); experiment: SHP2 phosphatase inhibition assay (pNPP); format: biochemical; conditions: for IC50: Example 9: SHP2 catalytic domain 20 nM, pNPP 3 mM, pH 7.0, 25° C., read-out: IC50 SHP2
# T3 sequence (Q06124 224-528): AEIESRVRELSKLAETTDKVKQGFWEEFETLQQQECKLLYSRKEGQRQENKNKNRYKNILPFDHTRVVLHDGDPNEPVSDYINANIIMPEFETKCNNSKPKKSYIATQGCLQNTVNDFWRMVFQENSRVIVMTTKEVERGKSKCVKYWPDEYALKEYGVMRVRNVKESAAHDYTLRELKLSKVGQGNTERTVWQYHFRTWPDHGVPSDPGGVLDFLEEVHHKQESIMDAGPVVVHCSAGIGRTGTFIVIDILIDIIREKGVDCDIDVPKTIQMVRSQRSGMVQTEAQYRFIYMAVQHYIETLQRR
# [3] = tested on: MDA-MB-231 breast cancer cell line; experiment: MTT cell proliferation assay; format: cell-based, human; conditions: 20 μM and 40 μM, 2 days
# Experimental: as §1
# [4] = tested on: EGF-mediated ERK1/2 phosphorylation in H1975 cells; experiment: EGF-induced ERK1/2 phosphorylation immunoblot; format: cell-based, human; conditions: compound 7 at 40 μM
# Experimental: as §1
# VHX = molecular target: T4, VHX (Homo sapiens, UniProt Q9NRW4); experiment: PTP inhibition assay (pNPP); format: biochemical; conditions: IC50 VHX, pNPP at Km, pH 7.0, 25° C.
# T4 sequence (Q9NRW4 1-184): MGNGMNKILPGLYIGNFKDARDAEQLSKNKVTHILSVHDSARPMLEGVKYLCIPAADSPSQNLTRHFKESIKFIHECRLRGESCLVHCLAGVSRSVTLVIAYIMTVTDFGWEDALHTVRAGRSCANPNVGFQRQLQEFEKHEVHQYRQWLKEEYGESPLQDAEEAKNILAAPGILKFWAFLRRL
# PEST = molecular target: T5, PEST (Homo sapiens, UniProt Q05209); experiment: PTP inhibition assay (pNPP); format: biochemical; conditions: IC50 PEST
# T5 sequence (Q05209 1-780): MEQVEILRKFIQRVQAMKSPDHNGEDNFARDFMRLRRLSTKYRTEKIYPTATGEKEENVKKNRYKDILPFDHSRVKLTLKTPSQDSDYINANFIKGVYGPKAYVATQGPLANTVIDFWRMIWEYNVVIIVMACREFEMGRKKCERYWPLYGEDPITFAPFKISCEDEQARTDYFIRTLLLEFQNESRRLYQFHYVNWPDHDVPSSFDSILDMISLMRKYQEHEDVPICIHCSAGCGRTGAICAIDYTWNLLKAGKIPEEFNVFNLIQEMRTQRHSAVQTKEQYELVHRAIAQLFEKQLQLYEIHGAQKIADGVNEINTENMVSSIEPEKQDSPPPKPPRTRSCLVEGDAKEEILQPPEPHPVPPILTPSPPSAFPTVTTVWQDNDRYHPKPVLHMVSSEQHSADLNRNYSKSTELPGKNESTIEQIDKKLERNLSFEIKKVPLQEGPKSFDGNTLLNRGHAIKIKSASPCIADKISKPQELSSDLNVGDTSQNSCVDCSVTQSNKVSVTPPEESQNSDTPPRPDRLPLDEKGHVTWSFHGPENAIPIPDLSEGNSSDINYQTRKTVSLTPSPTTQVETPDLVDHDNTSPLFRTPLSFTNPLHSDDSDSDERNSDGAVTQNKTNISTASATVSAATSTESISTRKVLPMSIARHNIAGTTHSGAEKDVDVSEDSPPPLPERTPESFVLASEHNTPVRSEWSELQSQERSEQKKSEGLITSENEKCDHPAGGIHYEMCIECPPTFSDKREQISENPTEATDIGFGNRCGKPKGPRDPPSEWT
# FAP1 = FAP1 (Homo sapiens, UniProt Q12923); experiment: PTP inhibition assay (pNPP); format: biochemical; conditions: IC50 FAP1
# FAP1, sequence (Q12923 whole entry): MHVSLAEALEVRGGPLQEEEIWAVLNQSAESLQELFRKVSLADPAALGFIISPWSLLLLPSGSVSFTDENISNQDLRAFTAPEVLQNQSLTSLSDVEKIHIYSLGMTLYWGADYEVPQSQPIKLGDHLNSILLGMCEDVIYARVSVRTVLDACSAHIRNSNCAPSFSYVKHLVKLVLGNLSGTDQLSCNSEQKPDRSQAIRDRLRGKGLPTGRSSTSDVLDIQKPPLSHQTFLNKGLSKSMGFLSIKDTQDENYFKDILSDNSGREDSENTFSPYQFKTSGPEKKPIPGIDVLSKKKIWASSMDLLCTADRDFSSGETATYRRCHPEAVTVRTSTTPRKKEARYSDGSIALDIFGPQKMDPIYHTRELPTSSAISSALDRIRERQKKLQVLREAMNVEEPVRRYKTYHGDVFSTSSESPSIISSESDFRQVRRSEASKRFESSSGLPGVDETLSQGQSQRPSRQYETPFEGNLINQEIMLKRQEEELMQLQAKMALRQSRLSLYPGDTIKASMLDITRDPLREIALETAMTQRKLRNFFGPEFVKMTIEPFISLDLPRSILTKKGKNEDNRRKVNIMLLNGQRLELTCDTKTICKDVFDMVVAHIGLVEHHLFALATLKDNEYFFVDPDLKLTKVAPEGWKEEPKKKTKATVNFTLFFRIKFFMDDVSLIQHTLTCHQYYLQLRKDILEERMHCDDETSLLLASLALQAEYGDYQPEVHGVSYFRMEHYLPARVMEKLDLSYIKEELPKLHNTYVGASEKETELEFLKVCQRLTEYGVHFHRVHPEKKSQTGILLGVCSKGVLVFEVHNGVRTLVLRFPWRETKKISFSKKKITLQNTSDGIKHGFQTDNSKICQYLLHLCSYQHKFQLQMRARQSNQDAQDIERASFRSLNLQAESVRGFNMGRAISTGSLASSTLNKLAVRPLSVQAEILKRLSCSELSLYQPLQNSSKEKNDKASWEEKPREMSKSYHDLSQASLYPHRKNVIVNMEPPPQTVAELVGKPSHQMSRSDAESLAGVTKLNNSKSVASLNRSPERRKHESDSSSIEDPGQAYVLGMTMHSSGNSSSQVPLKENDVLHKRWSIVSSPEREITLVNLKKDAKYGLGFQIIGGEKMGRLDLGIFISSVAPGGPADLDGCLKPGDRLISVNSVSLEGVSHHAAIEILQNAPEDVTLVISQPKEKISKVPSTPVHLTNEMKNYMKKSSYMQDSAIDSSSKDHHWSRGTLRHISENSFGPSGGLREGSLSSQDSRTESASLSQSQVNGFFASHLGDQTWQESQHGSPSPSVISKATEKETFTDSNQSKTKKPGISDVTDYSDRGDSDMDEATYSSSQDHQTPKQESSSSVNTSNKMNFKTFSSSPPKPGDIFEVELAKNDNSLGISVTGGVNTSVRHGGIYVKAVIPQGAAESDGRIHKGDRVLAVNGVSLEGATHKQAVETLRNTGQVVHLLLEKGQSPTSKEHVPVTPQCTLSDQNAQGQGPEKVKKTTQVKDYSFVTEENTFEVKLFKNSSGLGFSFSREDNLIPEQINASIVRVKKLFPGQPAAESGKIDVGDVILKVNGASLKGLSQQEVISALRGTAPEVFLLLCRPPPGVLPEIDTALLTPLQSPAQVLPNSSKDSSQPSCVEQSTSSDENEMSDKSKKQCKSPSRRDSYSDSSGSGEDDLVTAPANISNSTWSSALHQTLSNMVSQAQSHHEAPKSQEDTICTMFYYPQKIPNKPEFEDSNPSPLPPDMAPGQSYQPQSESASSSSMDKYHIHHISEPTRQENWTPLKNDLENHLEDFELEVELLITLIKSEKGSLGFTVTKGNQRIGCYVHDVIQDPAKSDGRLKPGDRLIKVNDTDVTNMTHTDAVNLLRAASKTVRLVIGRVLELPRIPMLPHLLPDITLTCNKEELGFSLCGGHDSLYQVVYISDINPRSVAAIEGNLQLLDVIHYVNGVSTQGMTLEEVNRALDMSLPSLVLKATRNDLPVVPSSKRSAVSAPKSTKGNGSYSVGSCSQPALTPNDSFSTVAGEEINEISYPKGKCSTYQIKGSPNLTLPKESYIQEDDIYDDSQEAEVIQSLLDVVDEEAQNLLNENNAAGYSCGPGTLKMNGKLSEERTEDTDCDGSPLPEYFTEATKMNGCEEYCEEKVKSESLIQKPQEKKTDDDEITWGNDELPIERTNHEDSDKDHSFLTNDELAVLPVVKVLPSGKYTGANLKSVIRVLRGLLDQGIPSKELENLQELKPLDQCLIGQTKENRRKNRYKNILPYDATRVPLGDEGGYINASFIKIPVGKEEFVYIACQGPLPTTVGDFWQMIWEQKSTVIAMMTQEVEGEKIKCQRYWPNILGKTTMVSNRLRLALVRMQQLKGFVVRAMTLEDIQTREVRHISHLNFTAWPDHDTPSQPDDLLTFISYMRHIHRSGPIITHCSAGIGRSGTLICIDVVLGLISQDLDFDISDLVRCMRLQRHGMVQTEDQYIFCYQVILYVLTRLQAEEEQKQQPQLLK
# Ssu72 = molecular target: T6, Ssu72 (Homo sapiens, UniProt Q9NP77); experiment: PTP inhibition assay (pNPP); format: biochemical; conditions: IC50 Ssu72
# T6 sequence (Q9NP77 1-194): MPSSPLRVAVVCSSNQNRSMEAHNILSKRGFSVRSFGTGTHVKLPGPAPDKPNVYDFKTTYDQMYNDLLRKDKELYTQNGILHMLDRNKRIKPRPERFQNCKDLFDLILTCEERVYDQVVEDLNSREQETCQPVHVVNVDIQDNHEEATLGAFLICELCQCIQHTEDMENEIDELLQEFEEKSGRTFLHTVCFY
# TbPTP1 = TbPTP1 (Trypanosoma brucei brucei, UniProt Q38AT7); experiment: PTP inhibition assay (pNPP); format: biochemical; conditions: pNPP at Km, pH 7.0, 25° C.; read-out: IC50 TbPTP1
# TbPTP1, sequence (Q38AT7 entry or part of it): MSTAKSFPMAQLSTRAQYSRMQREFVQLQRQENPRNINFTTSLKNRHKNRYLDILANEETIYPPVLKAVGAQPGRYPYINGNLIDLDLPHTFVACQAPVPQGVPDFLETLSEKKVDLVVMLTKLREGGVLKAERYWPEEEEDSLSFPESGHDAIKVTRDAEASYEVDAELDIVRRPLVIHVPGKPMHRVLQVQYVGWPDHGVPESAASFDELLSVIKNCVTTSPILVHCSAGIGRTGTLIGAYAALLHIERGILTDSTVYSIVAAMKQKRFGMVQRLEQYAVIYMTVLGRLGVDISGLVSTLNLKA
# SHP2 [5] = molecular target: SHP2 (Homo sapiens, UniProt Q06124); experiment: Covalent modification of SHP2 by QTOF ESI-MS / LC-MS; conditions: 100 μM compound; cefsulodin three hours, phenyl vinyl sulfone 10 minutes
# Experimental: Agilent 6520 Accurate-Mass was used for the Q-TOF ESI-MS studies. Water and acetonitrile (both containing 0.1% formic acid) were used as eluent (80% water, flow 50 μL/min, run time 5 minutes). ESI positive mode was used with mass range from 300 to 1700, the gas temperature was 325° C., and vaporizer temperature was: […]. The sample was adjusted to have a concentration at 0.1 mg/mL, the injection volume of each sample was 1 μL. Mass hunter software was used for protein deconvolution data analysis to calculate the molecular weight of the protein.
# Agilent Technologies 6130 quadrupole LC-MS instrument was used for the LC-MS studies. A C18 reserved phase column (phenomenex, 50×4.6 mm) was used as stationary phase, water and methanol (both containing 0.1% formic acid) were used as mobile phase (gradient: 0-100% methanol, flow 0.8 mL/min, run time 15 minutes), and UV absorbance at the fixed wavelength of 254 nm and positive and negative ESI-MS data were recorded. The sample was adjusted to have a concentration at 0.1 mg/mL, and the injection volume of each sample was 0.2 μL. The retention time and corresponding ESI-MS data were used as identity of molecules.
# mPTPA, sequence (P9WIA1 whole entry): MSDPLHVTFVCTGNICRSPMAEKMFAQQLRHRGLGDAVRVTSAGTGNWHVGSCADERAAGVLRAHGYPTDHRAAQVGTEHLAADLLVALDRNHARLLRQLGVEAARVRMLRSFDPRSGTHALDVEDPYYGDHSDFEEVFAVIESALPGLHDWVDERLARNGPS
Structure (SMILES),IC50 (PTPμ) [µM],H1975 cell proliferation (MTT) [1],IC50 (PP5) [µM],IC50 (SHP2 [2]) [µM],MDA-MB-231 cell survival/growth (MTT) [3],further results
O=C(CS(=O)(=O)O)Nc1ccc(N2CCOCC2)cc1,–,–,–,–,–,IC50 (mPTPA): 2.2 µM; IC50 (LMWPTP): 63 µM
"O=C(Nc1ccc(NC(=O)C(c2ccccc2)S(=O)(=O)O)cc1)C(=O)Nc1ccc(-c2cccs2)cc1 (stereo not drawn) [Compound 3, 2-oxo-2-((4-(2-oxo-2-((4-(thiophen-2-yl)phenyl)amino)acetamido)phenyl)amino)-1-phenylethanesulfonic acid]",> 10,no significant effect,> 10,0.9,–,–
"O=C(Nc1ccc(NC(=O)C(c2ccccc2)S(=O)(=O)O)cc1)C(=O)Nc1cc(-c2ccc(Br)cc2)n[nH]1 (stereo not drawn) [Compound 4, 2-((4-(2-((3-(4-bromophenyl)-1H-pyrazol-5-yl)amino)-2-oxoacetamido)phenyl)amino)-2-oxo-1-phenylethanesulfonic acid]",> 10,no significant effect,> 10,0.73 ± 0.02,–,Fold selectivity for SHP2 against PTPs examined (SHP2 [2]; cefsulodin: with the exception of SHP1): ≥ 8 fold
"O=C(Nc1ccc(NC(=O)C(c2ccccc2)S(=O)(=O)O)cc1)C(=O)Nc1ccc(-c2ccccc2)cc1 (stereo not drawn) [Compound 5, 2-((4-(2-([1,1′-biphenyl]-4-ylamino)-2-oxoacetamido)phenyl)amino)-2-oxo-1-phenylethanesulfonic acid]",> 10,reduce H1975 cell proliferation in a dose dependent manner; also recorded: significantly (**p<0.01) reduced cell proliferation,> 10,1.36 ± 0.04,significantly (**p<0.01) reduced cell survival,–
"CC(C)c1ccc(NC(=O)C(=O)Nc2ccc(NC(=O)C(c3ccccc3)S(=O)(=O)O)cc2)cc1 (stereo not drawn) [Compound 6, 2-((4-(2-((4-isopropylphenyl)amino)-2-oxoacetamido)phenyl)amino)-2-oxo-1-phenylethanesulfonic acid]",–,reduce H1975 cell proliferation in a dose dependent manner; also recorded: significantly (**p<0.01) reduced cell proliferation,–,2.33 ± 0.04,significantly (**p<0.01) reduced cell survival,–
"O=C(Nc1ccccc1)C(=O)Nc1ccc(NC(=O)C(c2ccccc2)S(=O)(=O)O)cc1 (stereo not drawn) [Compound 7, 2-oxo-2-((4-(2-oxo-2-(phenylamino)acetamido)phenyl)amino)-1-phenylethanesulfonic acid]",–,ineffective; also recorded: did not,–,> 50,did not,Effect on EGF-mediated ERK1/2 phosphorylation [4]: no appreciable effect; also recorded: failed to block EGF-mediated ERK1/2 phosphorylation; Inhibition of SHP2 at 50 μM (SHP2 [2]; 50 μM): no inhibition
O=C(Nc1ccc(OCc2ccccc2)c(Cl)c1)C(=O)Nc1ccccc1NC(=O)C(c1ccccc1)S(=O)(=O)O (stereo not drawn) [Compound L319-21-M50],–,–,–,–,–,IC50 (VHX): > 50 µM; IC50 (PEST): > 50 µM; IC50 (FAP1): 39 µM; IC50 (Ssu72): > 50 µM; IC50 (TbPTP1): > 50 µM
C=CS(=O)(=O)c1ccccc1 [phenyl vinyl sulfone],–,–,–,–,–,Covalent adduct formation with SHP2 (QTOF ESI-MS) (SHP2 [5]): formed a covalent adduct
